Earlier results, collected in patent US7612172B2, “Nucleic acids and corresponding proteins entitled 282P1G3 useful in treatment and detection of cancer” (Agensys, Inc., priority 2002, dated 2009).

Tests used:
T helper lymphocytes = details: regardless of HLA type
[1] = tested on: LAGE-I tumor specific gene; details: lymphoblastoid cells

binding to HLA-DR alleles (HLA-DR alleles)	Compound	stimulation of T helper lymphocyte response (T helper lymphocytes)	expression of the LAGE-I tumor specific gene [1]
bind to most HLA-DR alleles	aKXVAAWTLKAa	stimulate the response of T helper lymphocytes from most individuals	–
–	Nc1ncn([C@H]2C[C@H](O)[C@@H](CO)O2)c(=O)n1 [deoxy-azacytidine]	–	induced
